Laboratory results from patent US20120225135A1 (priority 2010, published 2012).

How the values were obtained:
[1] = system: E. coli
[2] = system: Total Plate Count (microbiological surface contamination)
[3] = Processing of potatoes, micro-biological control of process water
[4] = system: Saccharomyces diastaticus (70 percent sporulated); assay: Microbiological effectiveness at cold temperatures; format: cell-based
[5] = system: Enterobacter Cloacae; assay: Microbiological effectiveness at cold temperatures; format: cell-based
[6] = system: E. coli; assay: Sanitation of fishing holds, E. coli; settings: cleaned surface sprayed with 10 ppm ClO2 solution
Text: (§1) Gross filth removed and washed in detergent
(§2) Cleaned surface sprayed with 10 ppm ClO2 solution

[7] = system: TPC; assay: Sanitation of fishing holds, TPC; settings: cleaned surface sprayed with 10 ppm ClO2 solution
Text: as §1, §2

[8] = system: Salmonella choleraesuis, ATCC 10708; format: cell-based; settings: pH 5
[9] = system: Escherichia coli, ATCC 11229; format: cell-based; settings: pH 5
[10] = system: Legionella pneumophila, ATCC 33153; format: cell-based; settings: pH 5
[11] = system: Rotavirus SA-11, ATCC VR-899; format: cell-based; settings: pH 9
[12] = Residual ClO2 after contact with effluents or tap water (amperometric titration); format: physicochemical; settings: for Residual ClO2: trickling filters effluents
[13] = system: Total Count; assay: Disinfection of effluents, total count; format: cell-based; settings: effluents, ClO2 dose 9.86 mg/L, 30 minutes

[O][Cl+][O-] [Chlorine Dioxide, chlorine dioxide]
E. coli on cut lettuce [1]: always zero
TPC at day zero [2]: less than 7×10^4
micro-biological control compared with chlorine [3]: better micro-biological control agent than chlorine at 5-10 ppm
Deactivation (%) [4]: 99.999%
Deactivation (%) [5]: 99.999%
E. coli [6]: below level of detection
TPC at day zero [7]: less than 7×10^4
reduction in titer [8]: > 6 log 10
reduction in titer [9]: > 6 log 10
reduction in titer [10]: > 6 log 10
reduction in titer [11]: > 4 log 10
ClO2 residual ([12]; effluent, ClO2 dose 5.2 mg/L, contact time 3½ hrs): 0.4 mg/L as ClO2
ClO2 residual ([12]; effluent, ClO2 dose 5.2 mg/L, contact time 10 min): 1.9 mg/L as ClO2
ClO2 residual ([12]; effluent, ClO2 dose 5.2 mg/L, contact time 30 min): 1.4 mg/L as ClO2
ClO2 residual ([12]; effluent, ClO2 dose 5.2 mg/L, contact time 1 hr): 1.0 mg/L as ClO2
ClO2 residual ([12]; effluent, ClO2 dose 5.2 mg/L, contact time 2 hrs): 0.8 mg/L as ClO2
ClO2 residual ([12]; effluent, ClO2 dose 5.2 mg/L, contact time 24 hrs): 0 mg/L as ClO2
ClO2 residual ([12]; effluents, ClO2 dose 7.84 mg/L, contact time 10 min): 3.0 mg/L as ClO2
ClO2 residual ([12]; effluents, ClO2 dose 7.84 mg/L, contact time 30 min): 2.6 mg/L as ClO2
ClO2 residual ([12]; effluents, ClO2 dose 7.84 mg/L, contact time 60 min): 2.1 mg/L as ClO2
ClO2 residual ([12]; effluents, ClO2 dose 7.84 mg/L, contact time 1.5 hr): 1.9 mg/L as ClO2
ClO2 residual ([12]; effluents, ClO2 dose 7.84 mg/L, contact time 2.5 hr): 1.5 mg/L as ClO2
ClO2 residual ([12]; effluents, ClO2 dose 7.84 mg/L, contact time 3.5 hr): 1.0 mg/L as ClO2
ClO2 residual ([12]; effluents, dose 19.2 mg/L, 20 minutes, pH initial 4, final 3.4): 4.66 mg/L as ClO2
ClO2 residual ([12]; effluents, dose 19.2 mg/L, 20 minutes, pH initial 5, final 4.6): 4.37 mg/L as ClO2
ClO2 residual ([12]; effluents, dose 19.2 mg/L, 20 minutes, pH initial 6, final 6.45): 4.95 mg/L as ClO2
ClO2 residual ([12]; effluents, dose 19.2 mg/L, 20 minutes, pH initial 7.5, final 7.3): 3.84 mg/L as ClO2
ClO2 residual ([12]; effluents, dose 19.2 mg/L, 20 minutes, pH initial 9, final 8.8): 1.27 mg/L as ClO2
ClO2 residual ([12]; effluents, dose 19.2 mg/L, 20 minutes, pH initial 10, final 9.9): 0.11 mg/L as ClO2
ClO2 residual ([12]; effluents, dose 37.5 mg/L, 20 minutes, pH initial 4.0, final 3.5): 25.84 mg/L as ClO2
ClO2 residual ([12]; effluents, dose 37.5 mg/L, 20 minutes, pH initial 5.0, final 4.95): 26.88 mg/L as ClO2
ClO2 residual ([12]; effluents, dose 37.5 mg/L, 20 minutes, pH initial 6.0, final 6.05): 24.20 mg/L as ClO2
ClO2 residual ([12]; effluents, dose 37.5 mg/L, 20 minutes, pH initial 7.5, final 7.3): 25.27 mg/L as ClO2
ClO2 residual ([12]; effluents, dose 37.5 mg/L, 20 minutes, pH initial 9, final 8.8): 15.13 mg/L as ClO2
ClO2 residual ([12]; effluents, dose 37.5 mg/L, 20 minutes, pH initial 10, final 9.8): 5.23 mg/L as ClO2
ClO2 residual ([12]; tap water with ammonium ion, nitrites, nitrates, neutral pH, dose 19.2 mg/L, 10 min): 0 mg/L as ClO2
ClO2 residual ([12]; tap water with ammonium ion, nitrites, nitrates, neutral pH, dose 19.2 mg/L, 30 min): 0 mg/L as ClO2
ClO2 residual ([12]; tap water with ammonium ion, nitrites, nitrates, neutral pH, dose 19.2 mg/L, 1 hr): 0.07 mg/L as ClO2
ClO2 residual ([12]; tap water with ammonium ion, nitrites, nitrates, neutral pH, dose 19.2 mg/L, 3 hrs): 0.03 mg/L as ClO2
ClO2 residual ([12]; tap water with ammonium ion, nitrites, nitrates, neutral pH, dose 19.2 mg/L, 24 hrs): 0.08 mg/L as ClO2
Residual ClO2 ([12]; dose 2.7 mg/L, contact time 5 min): 0 mg/L as ClO2
Residual ClO2 ([12]; dose 2.7 mg/L, contact time 20 min): 0 mg/L as ClO2
Residual ClO2 ([12]; dose 2.7 mg/L, contact time 35 min): 0 mg/L as ClO2
Residual ClO2 ([12]; dose 7.8 mg/L, contact time 5 min): 1.28 mg/L as ClO2
Residual ClO2 ([12]; dose 7.8 mg/L, contact time 20 min): 1.03 mg/L as ClO2
Residual ClO2 ([12]; dose 7.8 mg/L, contact time 35 min): 0.84 mg/L as ClO2
Residual ClO2 ([12]; dose 10.8 mg/L, contact time 5 min): 3.10 mg/L as ClO2
Residual ClO2 ([12]; dose 10.8 mg/L, contact time 20 min): 2.17 mg/L as ClO2
Residual ClO2 ([12]; dose 10.8 mg/L, contact time 35 min): 2.07 mg/L as ClO2
Total Count ([13]; pH initial 4.6, final 4.4): 5 MPN per 100 ml
Total Count ([13]; pH initial 5.5, final 5.6): 15 MPN per 100 ml
Total Count ([13]; pH initial 6.5, final 6.7): 30 MPN per 100 ml
Total Count ([13]; pH initial 7.5, final 7.6): 1 × 10^2 MPN per 100 ml
